In patent US6936569B2, “Compositions and methods for protecting cultivated plants from herbicidal injury” (priority 1998, dated 2005):
Read-outs that look alike come from different tables or passages of the source.

Key:
[1] = tested on: 2-leaf corn; test: Greenhouse corn tolerance (visual injury, corn height) after isoxaflutole with or without acetochlor/MON-13900 plus adjuvants (Example 3); format: in vivo, Zea mays; details: Table 9: greenhouse, 8 DAT, isoxaflutole 105 g/ha
Experimental: This example was performed as in Example 1, except that adjuvants SMS and AFS-MTMS were added to an isoxaflutole tank-mixture that contained an acetochlor herbicide and the safener MON-13900. As in Example 1, the herbicide applications were made to 2-leaf corn, and the herbicide treatments consisted of isoxaflutole at 105 g/ha and isoxaflutole tank-mixed with 1.8 kg/ha of acetochlor/MON-13900 applied either alone or in combination with either NIS at 0.25% (v/v), SMS at 0.5% (v/v), or AFS-MTMS at 0.5% (v/v).
The herbicide compositions were applied through an 8003 E flat fan nozzle delivering 234 L/ha at a pressure of 172 kPa. Corn tolerance was evaluated 8 DAT by visually evaluating the plants for bleaching and necrotic symptoms and also by measuring corn height (base of the plant to its crown). Visual corn injury ratings were based on a scale from 0 to 100, with 0 indicating no effect and 100 indicating plant death. Corn height was measured in cm and presented as a percent of the non-treated plants, with 0 indicating total reduction in plant height and 100 indicating height equal to the non-treated plants. All experiments were conducted twice as completely randomized designs with four replications. Data were subjected to analysis of variance and means separated using Fisher's Protected LSD test at a+0.05. […]

[2] = tested on: CHEAL - common lambsquarter, Chenopodium album L.; test: 1998 field trial: weed control, common lambsquarters; format: in vivo; details: Table 8: field, 60 DAP
Experimental: (§1) Conventional tillage experiments were conducted in 1998 to evaluate the influence of SMS and AFS-MTMS, on corn tolerance and weed control from postemergence applications of isoxaflutole alone and in tank-mixture with metolachlor/benoxacor. Experiments were conducted at the Michigan State University Crop and Soil Science Research Farm at East Lansing, Mich. on Capac sandy clay loam soil (fine-loamy, mixed mesic Acric Ochraqualfs) containing 3.1% organic matter with a pH of 6.3 in 1998.
Tillage consisted of moldboard plowing in the fall prior to spring disking and field cultivation. Prior to spring cultivation, 320 kg/ha of 46-0-0 fertilizer was applied broadcast. […]
(§2) Corn tolerance was evaluated 30 days after planting (DAP) by visually evaluating plants for bleaching and necrotic symptoms and also by measuring corn height (base of plant to the crown) 40 DAP. Weed control by species was visually evaluated 60 DAP. […] Corn grain yield was determined by harvesting the center two rows of each plot with a plot combine. […]
Corn (ZEAMX) in the 2-leaf or 4-leaf stage was treated with herbicidal compositions consisting of BALANCE (isoxaflutole); BALANCE and DUAL II (metolachlor and the safener benoxacor); BALANCE and SMS; BALANCE and AFS-MTMS; BALANCE, DUAL II and SMS; or BALANCE, DUAL, and AFS-MTMS. The percent injury was determined 6 DAT, 12 DAT, and 30 DAP. […]

[3] = tested on: giant foxtail, Setaria faberi Herrm. (SETFA); test: 1998 field trial: weed control, giant foxtail; format: in vivo; details: Table 8: field, 60 DAP
Experimental: as §1
(§3) Tillage consisted of moldboard plowing in the fall prior to spring disking and field cultivation. Prior to spring cultivation, 320 kg/ha of 46-0-0 fertilizer was applied broadcast. At planting, 140 kg/ha of 6-24-24 fertilizer was applied as a banded treatment 5 cm below and 5 cm beside the corn seeds. Pioneer 37R71 corn was planted on May 11, 1998 at a rate of 62,000 seeds/ha. Each plot was 10.6 m long and consisted of 4 rows spaced 76 cm apart. […]
as §2

[4] = tested on: redroot pigweed; details: postemergence application, isoxaflutole 105 g/ha; cited from earlier work
[5] = tested on: Pioneer 3573 corn; test: Greenhouse corn tolerance (visual injury, corn height) after postemergence isoxaflutole with or without metolachlor/benoxacor plus test adjuvants (Example 1); format: in vivo, Zea mays; details: 8 DAT
Experimental: Various silicone-based compounds were evaluated for ability to prevent herbicidal injury to the corn when used as repellent adjuvants in herbicide formulations. In previous experiments, it was shown that isoxaflutole in combination with metolachlor and benoxacor applied once corn had emerged caused significant corn injury. The basis of this severe injury is the retention and subsequent absorption of isoxaflutole in the foliar tissue of the corn plant, which is exacerbated by the metolachlor herbicide in the composition. Therefore, to address this problem, a number of silicon-based compounds, which were believed to have repellent properties, were evaluated for the ability to prevent injury to corn plants. The compounds evaluated were an aqueous solution of […] sodium methyl siliconate and 67 weight percent water (“SMS”), an aqueous solution of 35.7 weight percent N-(2-aminoethyl)-3-aminopropyltrimethoxysilane, 58.2 weight percent methyltrimethoxysilane, and 6.1 weight percent water (“AFS-MTMS”), methyltrimethoxysilane (“MTMS”), and phosphonate ester alkyl silicon (“PEAS”). These test adjuvants are commercially available from Dow Corning, Midland, Mich. The test adjuvants were applied in combination with isoxaflutole or isoxaflutole in combination with metolachlor and the safener benoxacor, and the ability of the combination to reduce plant injury by inhibiting retention and subsequent absorption of the herbicide was evaluated.
Pioneer 3573 corn seeds (Pioneer 3573, a product of Pioneer Hi-Bred International, Inc., Des Moines, Iowa) were planted 2.54 cm deep, and velvetleaf and barnyardgrass seeds were planted 1.0 cm deep in 875 ml pots containing BACCTO professional greenhouse potting mix (a product of Michigan Peat Co., Houston, Tex.). The seedlings were grown in a greenhouse maintained at 25° C.±2° C. Natural sunlight was supplemented with light from sodium vapor lamps, which provided a total midday light intensity of 1,000 μmol m^−2 s^−1 photosynthetic photon flux at plant height during a 16 hour photoperiod. Plants were watered daily and fertilized weekly with 50 ml of a water soluble fertilizer solution (400 ppm nitrogen, 400 ppm P2O5, and 400 ppm K2O). […]
The herbicide compositions were applied through an 8003 E flat fan nozzle (available from Spraying Systems Co., Wheaton, Ill.) delivering 234 L/ha at a pressure of 172 kPa (25 gallons/acre). Corn tolerance was evaluated 8 days after treatment (DAT) by visually evaluating the plants for bleaching and necrotic symptoms and also by measuring corn height (base of the plant to its crown). […] Corn height was measured in cm and presented as a percent of the non-treated plants, with 0 indicating total reduction in plant height and 100 indicating height equal to the non-treated plants. […]

[6] = tested on: velvetleaf; details: postemergence application, isoxaflutole 105 g/ha; cited from earlier work
[7] = tested on: common ragweed; details: postemergence application, isoxaflutole 105 g/ha; cited from earlier work
[8] = tested on: ZEAMX - corn, Zea mays L.; format: in vivo; details: Table 8: field; for Corn Height: 40 DAP; for Grain Yield: seed weight adjusted to 15% moisture
Experimental: as §1
Tillage consisted of moldboard plowing in the fall prior to spring disking and field cultivation. Prior to spring cultivation, 320 kg/ha of 46-0-0 fertilizer was applied broadcast. At planting, 140 kg/ha of 6-24-24 fertilizer was applied as a banded treatment 5 cm below and 5 cm beside the corn seeds. Pioneer 37R71 corn was planted on May 11, 1998 at a rate of 62,000 seeds/ha. Each plot was 10.6 m long and consisted of 4 rows spaced 76 cm apart.
The tillage experiments were conducted as a randomized complete block design in a factorial arrangement with three replications. The factors consisted of herbicide application timing and herbicide treatment. Herbicides were applied when the corn was at the 2-leaf and 4-leaf stages. Corn leaf stages are described as the number of visible leaves. Herbicide treatments included isoxaflutole alone (BALANCE) at 105 g/ha and in combination with 1.1 kg/ha of metolachlor/benoxacor (DUAL II). Each of these treatments were applied either alone or with either SMS or AFS-MTMS. Each repellent was used at a rate of 0.5% v/v. Additional treatments not included in the factorial arrangement were an untreated check and a weed-free check. All herbicides were applied with a tractor mounted, compressed-air sprayer calibrated to deliver […] at 207 kPa using 8003 E flat-fan nozzles.
Corn tolerance was evaluated 30 days after planting (DAP) by visually evaluating plants for bleaching and necrotic symptoms and also by measuring corn height (base of plant to the crown) 40 DAP. Weed control by species was visually evaluated 60 DAP. Visual evaluations were based on a scale of 0 (no effect) to 100% (complete weed or crop death). Corn grain yield was determined by harvesting the center two rows of each plot with a plot combine. Seed weight was adjusted to 15% moisture.
Data were subjected to analysis of variance and means separated using Fisher's Protected LSD test at α=0.05. Data were combined over years when treatment and/or application timing by year interactions were not significant α=0.05. […] Corn height and yield results were converted to a percent of the weed-free treatment after separation.
Corn (ZEAMX) in the 2-leaf or 4-leaf stage was treated with herbicidal compositions consisting of BALANCE (isoxaflutole); BALANCE and DUAL II (metolachlor and the safener benoxacor); BALANCE and SMS; BALANCE and AFS-MTMS; BALANCE, DUAL II and SMS; or BALANCE, DUAL, and AFS-MTMS. The percent injury was determined 6 DAT, 12 DAT, and 30 DAP. As weed controls, the annual grasses (ANGR) and common lambsquarters, Chenopodium album L. (CHEAL) were treated with herbicidal compositions consisting of BALANCE; BALANCE and DUAL II; BALANCE and SMS; BALANCE and AFS-MTMS; BALANCE, DUAL II and SMS; or BALANCE, DUAL, and AFS-MTMS. The percent injury for the weed controls was determined 30 DAP.

[9] = tested on: common lambsquarters; details: postemergence application, isoxaflutole 105 g/ha; cited from earlier work
[10] = tested on: AMARE redroot pigweed, Amaranthus retroflexus L; test: 1998 field trial: weed control, redroot pigweed; format: in vivo; details: Table 8: field, 60 DAP
Experimental: as §1, §3, §2

[11] = tested on: ABUTH - velvet-leaf, Abutilon theophrasti Medicus; test: 1998 field trial: weed control, velvetleaf; format: in vivo; details: Table 8: field, 60 DAP
Experimental: as §1, §3, §2

[12] = Table 3: 2-leaf corn, isoxaflutole 105 g/ha, adjuvant at the rate in the Rate column (0.5% v/v)

SMILES: CS(=O)(=O)c1cc(C(F)(F)F)ccc1C(=O)c1cnoc1C1CC1 [Isoxaflutole, 5-cyclopropyl isoxazol-4-4-yl-2-mesyl-trifluoromethylphenyl ketone]
- Height, Isoxaflutole [1]: 99 % of control
- Injury, Isoxaflutole ([1]; NIS 0.25% v/v, SMS or AFS-MTMS 0.5% v/v): 0%
- Weed Control, CHEAL ([2]; 2-leaf application): 95%
- Weed Control, CHEAL ([2]; 4-leaf application): 96%
- Weed Control, SETFA ([3]; 2-leaf application): 73%
- Weed Control, SETFA ([3]; 4-leaf application): 70%
- control of redroot pigweed [4]: greater than 90%
- Height, Isoxaflutole [5, 12]: 100 % of control
- Injury, Isoxaflutole [5, 12]: 2%
- % injury to corn ([5]; greenhouse, 2-leaf corn, adjuvant rate 0%, isoxaflutole 105 g/ha, metolachlor/benoxacor 1.1 kg/ha, scale 0 no effect to 100 plant death): 2%
- Corn Height as a Percent of Control ([5]; greenhouse, adjuvant rate 0%): 100 % of control height
- control of velvetleaf [6]: greater than 90%
- control of common ragweed [7]: greater than 90%
- Corn Injury ([8]; 2-leaf application, 30 DAP (21 days after application), isoxaflutole 105 g/ha, metolachlor 1121 g/ha, adjuvants 0.5% v/v): 0%
- Corn Height ([8]; 2-leaf application): 61 cm
- Grain Yield ([8]; 2-leaf application): 10420 kg/ha
- Corn Injury ([8]; 4-leaf application, 30 DAP (15 days after application)): 10%
- Corn Height ([8]; 4-leaf application): 61 cm
- Grain Yield ([8]; 4-leaf application): 9995 kg/ha
- control of common lambsquarters [9]: greater than 90%
- Weed Control, AMARE ([10]; 2-leaf application): 98%
- Weed Control, AMARE ([10]; 4-leaf application): 100%
- Weed Control, ABUTH ([11]; 2-leaf application): 99%
- Weed Control, ABUTH ([11]; 4-leaf application): 100%
